{"source": "patent EP0341661A2", "about": "“Peptide-drug compositions containing alpha-aminoboronic acid derivatives” (THE DU PONT MERCK PHARMACEUTICAL COMPANY, priority 1988, dated 1989)", "key": {"[1]": {"test_system": "aminopeptidases", "test": "In situ nasal perfusion: degradation of 100 µM leucine enkephalin in the nasal perfusate", "assay_type": "in vivo, Sprague-Dawley rats", "settings": "for % Leucine Enkephalin Remaining: 0.1 µM inhibitor", "experimental": "In order to evaluate the effectiveness of the α-aminoboronic acid derivative inhibitors of this invention, an animal model was used (according to A. Hussain, J. Furaj, A. Yukihiko and J. E. Truelove, Biochem. Biophys. Res. Com. 133, 923, 1985) to assess the degradation of proteins and peptides in situ and in vivo in situ in the nasal cavity of rats. The method involved the use of Sprague-Dawley rats weighing approximately 300 grams. Each rat was anesthetized with sodium pentobarbitol (50 mg/kg). An incision was made in the neck and the trachea was canulated with PE 240 tubing. For the in situ studies, a second tube, which served to introduce the perfusing solution, was inserted through the esophagus to the posterior part of the nasal cavity. The nasopalatine was closed with an adhesive to prevent drainage of the perfusing solution from the nasal to the oral cavity. For the in vivo in situ studies, the esophagus was canulated using PE 240 tubing closed at one end. The closed end was pushed to the posterior end of the nasal passage and then tied in place. The nasopalatine was closed with an adhesive to prevent drainage of the perfusing solution from the nasal to the oral cavity. The rats were dosed in one nostril with 50 µl of peptide solution in two forms; the control solution had no inhibitor added, the test solution had inhibitor added at concentrations specified in the examples shown below. The dosing solution was 0.1 M phosphate buffer (pH 7.4). At certain time intervals (one rat/time interval), the drug was washed from the nose via the other nostril with 10 ml of 0.1 M phosphate buffer (pH 3.8) using a peristaltic pump. The nasal washing was then placed in a 10 ml volumetric flask and adjusted to 10 ml with the same buffer and analyzed for the peptide by HPLC. The analysis of leucine enkephalin and its major metabolite involved taking aliquots of samples, diluting them with 200 µl of 0.1 M citric acid (pH 2.3) to quench hydrolysis and subjecting the samples to analysis (for in vivo in situ studies, the washings were injected as they were obtained). High Pressure Liquid Chromatography (HPLC) was run on a 4.6 x 250 mm C₈ column. The mobile phase consisted of 0.1 M NaH₂PO₄-H₃PO₄-acetonitrile (916 : 5 : 275) and was delivered at a flow rate of 1.7 ml/min. Detection was by UV at 210 nm. Retention times for leucine enkephalin and its major degradation product, Des-Tyr-leucine enkephalin were 7.3 and 4.8 min., respectively. Data were calculated as % of leucine enkephalin remaining in the nasal perfusate as a function of time, counting the concentration at zero time as 100%. In this example, a 10 ml solution of 0.1 M phosphate buffer solution (pH 7.4) containing 100 µM leucine enkephalin (the peptide) in the absence or presence of 0.1 µM 3-methyl-1(4,4,5,5-tetramethyl-1,3,2-dioxaborolane-2-yl)-1-butamine, trifluoroacetic acid salt (boroleucine) as the inhibitor was perfused nasally in rats as described above. A 10 ml portion of the peptide solution was placed in a water-jacketed container, maintained at 37°C and circulated through the nasal cavity of rats using a peristaltic pump. The perfusing solution was passed through the nasal cavity, out the nostrils, through a funnel, and returned to the water-jacketed container. The perfusate was analyzed by the ANALYTICAL METHOD described above."}, "[2]": {"test_system": "aminopeptidases", "test": "In situ nasal perfusion: degradation of 100 µM leucine enkephalin in the nasal perfusate", "assay_type": "in vivo, Sprague-Dawley rats", "settings": "0.01 µM Boroleucine (title: 0.1 µM), 60 min"}}, "note": "Where a name gives a salt, the structure may show the parent alone.", "data": [{"compound": "CC(C)CC(N)B1OC(C)(C)C(C)(C)O1", "note": "(stereo not drawn) [boroleucine, 3-methyl-1(4,4,5,5-tetramethyl-1,3,2-dioxaborolane-2-yl)-1-butamine, trifluoroacetic acid salt]", "values": [{"measurement": "% of leucine enkephalin remaining in the nasal perfusate", "setting": "[1]; 0.01 µM Boroleucine (title: 0.1 µM), 0 min", "value": "100.0±0.0", "unit": "%"}, {"measurement": "% of leucine enkephalin remaining in the nasal perfusate", "setting": "[1]; 0.01 µM Boroleucine (title: 0.1 µM), 5 min", "value": "96.6±1.5", "unit": "%"}, {"measurement": "% of leucine enkephalin remaining in the nasal perfusate", "setting": "[1]; 0.01 µM Boroleucine (title: 0.1 µM), 10 min", "value": "93.5±3.0", "unit": "%"}, {"measurement": "% of leucine enkephalin remaining in the nasal perfusate", "setting": "[1]; 0.01 µM Boroleucine (title: 0.1 µM), 20 min", "value": "96.4±1.7", "unit": "%"}, {"measurement": "% of leucine enkephalin remaining in the nasal perfusate", "setting": "[1]; 0.01 µM Boroleucine (title: 0.1 µM), 30 min", "value": "92.7±3.3", "unit": "%"}, {"measurement": "% of leucine enkephalin remaining in the nasal perfusate", "setting": "[1]; 0.01 µM Boroleucine (title: 0.1 µM), 45 min", "value": "91.8±2.5", "unit": "%"}, {"measurement": "% of leucine enkephalin remaining in the nasal perfusate", "setting": "[1]; 0.01 µM Boroleucine (title: 0.1 µM), 90 min", "value": "85.7±3.5", "unit": "%"}, {"measurement": "% of leucine enkephalin remaining in the nasal perfusate", "setting": "[1]; 0.01 µM inhibitor, 0 min", "value": "100.0±0.0", "unit": "%"}, {"measurement": "% of leucine enkephalin remaining in the nasal perfusate", "setting": "[1]; 0.01 µM inhibitor, 10 min", "value": "90.6±3.5", "unit": "%"}, {"measurement": "% of leucine enkephalin remaining in the nasal perfusate", "setting": "[1]; 0.01 µM inhibitor, 20 min", "value": "89.1±5.3", "unit": "%"}, {"measurement": "% of leucine enkephalin remaining in the nasal perfusate", "setting": "[1]; 0.01 µM inhibitor, 30 min", "value": "79.1±2.9", "unit": "%"}, {"measurement": "% of leucine enkephalin remaining in the nasal perfusate", "setting": "[1]; 0.01 µM inhibitor, 45 min", "value": "74.9±2.8", "unit": "%"}, {"measurement": "% of leucine enkephalin remaining in the nasal perfusate", "setting": "[1]; 0.01 µM inhibitor, 60 min", "value": "69.2±2.0", "unit": "%"}, {"measurement": "% of leucine enkephalin remaining in the nasal perfusate", "setting": "[1]; 0.01 µM inhibitor, 90 min", "value": "56.2±1.6", "unit": "%"}, {"measurement": "% of leucine enkephalin remaining in the nasal perfusate", "setting": "[1]; 0.03 µM inhibitor, 0 min", "value": "100.0±0.0", "unit": "%"}, {"measurement": "% of leucine enkephalin remaining in the nasal perfusate", "setting": "[1]; 0.03 µM inhibitor, 5 min", "value": "94.1±1.7", "unit": "%"}, {"measurement": "% of leucine enkephalin remaining in the nasal perfusate", "setting": "[1]; 0.03 µM inhibitor, 10 min", "value": "93.6±1.6", "unit": "%"}, {"measurement": "% of leucine enkephalin remaining in the nasal perfusate", "setting": "[1]; 0.03 µM inhibitor, 20 min", "value": "91.8±2.2", "unit": "%"}, {"measurement": "% of leucine enkephalin remaining in the nasal perfusate", "setting": "[1]; 0.03 µM inhibitor, 30 min", "value": "88.3±1.4", "unit": "%"}, {"measurement": "% of leucine enkephalin remaining in the nasal perfusate", "setting": "[1]; 0.03 µM inhibitor, 45 min", "value": "85.7±1.3", "unit": "%"}, {"measurement": "% of leucine enkephalin remaining in the nasal perfusate", "setting": "[1]; 0.03 µM inhibitor, 60 min", "value": "81.5±1.4", "unit": "%"}, {"measurement": "% of leucine enkephalin remaining in the nasal perfusate", "setting": "[1]; 0.03 µM inhibitor, 90 min", "value": "72.9±1.0", "unit": "%"}, {"measurement": "order of inhibition of degradation", "setting": "[1]; 0.1 µM boroleucine, 10 µM bestatin, 100 µM puromycin", "value": "boroleucine> bestatin> puromycin"}, {"measurement": "% Leucine Enkephalin Remaining", "setting": "[1]; 0 min", "value": "100.0±0.0", "unit": "%"}, {"measurement": "% Leucine Enkephalin Remaining", "setting": "[1]; 5 min", "value": "96.6±1.5", "unit": "%"}, {"measurement": "% Leucine Enkephalin Remaining", "setting": "[1]; 10 min", "value": "93.5±3.0", "unit": "%"}, {"measurement": "% Leucine Enkephalin Remaining", "setting": "[1]; 20 min", "value": "96.4±1.7", "unit": "%"}, {"measurement": "% Leucine Enkephalin Remaining", "setting": "[1]; 30 min", "value": "92.7±3.3", "unit": "%"}, {"measurement": "% Leucine Enkephalin Remaining", "setting": "[1]; 45 min", "value": "91.8±2.5", "unit": "%"}, {"measurement": "% Leucine Enkephalin Remaining", "setting": "[1]; 60 min", "value": "88.8±2.6", "unit": "%"}, {"measurement": "% Leucine Enkephalin Remaining", "setting": "[1]; 90 min", "value": "85.6±3.5", "unit": "%"}, {"measurement": "comparison of the inhibitory effect of equimolar concentrations", "setting": "[1]; 0.1 µM of each inhibitor", "value": "superior to boroalanine"}, {"measurement": "% of leucine enkephalin remaining in the nasal perfusate", "setting": "[2]", "value": "88.8±2.6", "unit": "%"}]}]}
